Experimental findings from patent US6656911B2, “Serine protease inhibitors” (Cortech, Inc., priority 1994, dated 2003) are described below.

Molecules are shown by their SMILES. pKi: −log10 of the molar value.

Series [1] can be described thus: Blood level screening after oral dose. In kind it is in vivo, Sprague-Dawley rats. The note with it: rat, oral gavage 10 mg/kg; for concentration at 1 h / concentration at 3 h / concentration at 6 h: male, Sprague-Dawley, plasma; for concentration at 1 h: read-out: Plasma Levels (μM) 1 hr; for concentration at 3 h: read-out: Plasma Levels (μM) 3 hr; for concentration at 6 h: read-out: Plasma Levels (μM) 6 hr. Here is the method:
The inhibitors were dissolved or suspended in polyethylene glycol (PEG), PEG-400 or PEG:H2O:EtOH at a concentration of 10 mg/ml. Unfasted male Sprague-Dawley rats were given an oral dose of this solution by gavage. Rats received 10 mg inhibitor/kg body weight in a volume of 1 ml/kg. After 1,3 or 6 hr., the rats were killed with an overdose of urethane (2.5 g/kg; i.p.) and the blood collected in a heparinized tube via cardiac puncture. Red blood cells were separated from the plasma by centrifugation.
Depending on the inhibitor, one of four organics (ethyl acetate, toluene, isopropyl ether or methyl t-butyl ether) was used to extract the compound from the plasma. Inhibitor concentrations were measured by HPLC or LC/MS analysis.

For series [2], the system named is polymorphoneucleocyte (PMN). The series is described as follows: Extracellular Matrix (ECM) degradation assay. In kind it is cell-based. Particulars: PMN's stimulated with opsonized zymosan, 4 hr at 37° C.; for inhibition at 1 µM / ECM DATA % Inhibition 1 uM: 1 uM inhibitor; for inhibition at 5 µM / ECM DATA % Inhibition 5 uM: 5 uM inhibitor. The protocol:
Forty-eight well plates on which extracellular matrix had been established were supplied to Cortech by Dr. Simon's group at the State University of New York at Stony Brook. Briefly, the plates were prepared as follows: R22 rat heart smooth muscle cells were seeded into wells at 2.5×10^4 cells/cm. The cells were fed every 4 days with Eagle's Minimal Essential Media supplemented with fetal bovine serum, tryptose phosphate broth, cefotaxime and streptomycin. At confluence, daily supplements of 50 ug/ml ascorbic acid were added for 8 to 10 days during the synthesis of the ECM layer. [^35S]sulfate and [^3H]proline were also added to the culture media to incorporate radiolabel into the matrix. Cells were later lysed with 25 mM NH4OH. Plates were washed three times with water and once with phosphate-buffered saline containing 0.02% NaN3. Plates were stored at 4° C. until use.
Matrix degradation assays were performed as follows: 0.40 ml of Hanks balance salt solution (HBSS) containing 1 or 5 uM test inhibitor (final concentration; diluted from DMSO stock solution; <2% DMSO final concentration) was added to the wells. After 30 minutes, 50 ul of a polymorphoneucleocyte (PMN) suspension was added resulting in 5×10^5 cells/well. PMN's were stimulated with opsonized zymosan. Zymosan particles were washed and suspended in 0.5 ml human serum for 1 hr at 37° C., vortexing every 15 min. The particles were then washed three times with HBSS and added to wells at a ratio of 10 particles/PMN in a volume of 50 ul. After a 4 hr incubation at 37° C., a 100 ul aliquot of the supernatant was withdrawn for scintillation counting. Following removal of the remaining supernatant, the residual ECM was solubilized with 0.5 ml 2M NaOH. The amount of tritium in this solubilized ECM was accessed by scintillation. ECM degradation data are expressed as (soluble counts released/total ECM counts)—(basal counts released without PMN's/total ECM counts).

For series [3], the target named is T1, human neutrophil elastase (HNE) (Homo sapiens, UniProt P08246).
T1 sequence (P08246 30-267): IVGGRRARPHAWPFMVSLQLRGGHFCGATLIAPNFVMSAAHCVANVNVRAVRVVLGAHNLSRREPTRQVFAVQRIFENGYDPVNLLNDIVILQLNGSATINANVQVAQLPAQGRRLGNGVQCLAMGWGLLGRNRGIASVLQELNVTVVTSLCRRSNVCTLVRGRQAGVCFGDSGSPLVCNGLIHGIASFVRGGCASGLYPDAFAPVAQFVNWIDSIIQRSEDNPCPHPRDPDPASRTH
The series can be described thus: HNE Ki of CE compounds, tested as described in WO 96/16080. Particulars: read-out: HNE Ki. In kind it is biochemical.

Take `Cc1cccc(Cc2nnc(C(=O)[C@@H](NC(=O)CN3C(=O)CN=C(c4ccc(C(F)(F)F)cc4)c4ccccc43)C(C)C)o2)c1` [CE2237, 2-Oxo-5-(4-trifluoromethylphenyl)-1,4 benzodiazepine-N-[1-(2-[5-(3-methylbenzyl)-1,3,4-oxadiazolyl]carbonyl)-2-(S)-methylpropyl]acetamide]: in series [1], the concentration at 1 h came out at 1.02 µM, the concentration at 3 h stood at 1.8 µM and the concentration at 6 h stood at 0.84 µM. Also, in series [2], testing at 1 µM gave an inhibition of 34.6% and the inhibition (usually how much of the control response was suppressed) at 5 µM was 42.6%. In addition, the pKi (as a rule, the negative decadic logarithm of the Ki, by convention in mol/L) in series [3] is 8.52.
For `Cc1cccc(Cc2nnc(C(=O)[C@@H](NC(=O)CN3C(=O)NC(C)(C)C3=O)C(C)C)o2)c1` [CE2239, 4,4-Dimethyl-2,5-imidazolidinedione-N-[1-(2-[5-(3-methylbenzyl)-1,3,4-oxadiazolyl]carbonyl)-2-(S)-methylpropyl]acetamide], in series [1], the “Plasma Levels (μM) 1 hr” value worked out at 1.46 µM, the “Plasma Levels (μM) 3 hr” value came out at 1.15 µM and the “Plasma Levels (μM) 6 hr” value is 0.71 µM. In series [2], the “ECM DATA % Inhibition 1 uM” value is recorded as 11.9% and the “ECM DATA % Inhibition 5 uM” value worked out at 11.3%. Also, the negative-log Ki (pKi) in series [3] was 7.37.
For `CC(C)[C@H](NC(=O)[C@@H]1CCCN1C(=O)[C@@H](NC(=O)OCc1ccccc1)C(C)C)C(=O)c1nnc(Cc2ccc3c(c2)OCO3)o1` [CE2177, (Benzyloxycarbonyl)-L-valyl-N-[1-(2-[5-(3,4-methylenedioxybenzyl)-1,3,4-oxadiazolyl]carbonyl)-2-(S)-methylpropyl]-L-prolinamide], in series [1], the concentration at 1 h came to 0.393 µM, the concentration at 3 h was determined as 0.41 µM and the concentration at 6 h was found to be 0 µM. For the same molecule, in series [2], the inhibition at 1 µM was found to be 74.2% and testing at 5 µM gave an inhibition of 76.8%. The pKi in series [3] is 10.80.
With `Cc1cccc(Cc2nnc(C(=O)[C@@H](NC(=O)Cn3c(-c4ccc(F)cc4)ccc(N)c3=O)C(C)C)o2)c1` [CE2251, 2-[5-Amino-6-oxo-2-(4-fluorophenyl)-1,6-dihydro-1-pyridinyl]-N-[1-(2-[5-(3-methylbenzyl)-1,3,4-oxadiazolyl]carbonyl)-2-(S)-methylpropyl]acetamide], in series [1], the “Plasma Levels (μM) 1 hr” value was 1.63 µM, the “Plasma Levels (μM) 3 hr” value is 1.11 µM and the “Plasma Levels (μM) 6 hr” value was 0.73 µM. Also, in series [2], the “ECM DATA % Inhibition 1 uM” value was 54.1% and the “ECM DATA % Inhibition 5 uM” value was 74.5%. The pKi in series [3] was 9.37.
`Cc1cccc(Cc2nnc(C(=O)[C@@H](NC(=O)Cn3c(-c4ccccc4)ncc(N)c3=O)C(C)C)o2)c1` [CE2260, 2-[5-Amino-6-oxo-2-phenyl-1,6-dihydro-1-pyrimidinyl]-N-[1-(2-[5-(3-methylbenzyl)-1,3,4-oxadiazolyl]carbonyl)-2-(S)-methylpropyl]acetamide]: in series [1], the concentration at 1 h came out at 3.53 µM, the concentration at 3 h was determined as 3.05 µM and the concentration at 6 h is 1.89 µM. In series [2], this molecule yielded an inhibition at 1 µM of 68.3% and an inhibition at 5 µM of 59.7%. The pKi in series [3] was 9.41.
As for `Cc1cccc(Cc2nnc(C(=O)C(NC(=O)CN3C(=O)C(NC(=O)OCc4ccccc4)N=C(c4ccccc4Cl)c4cc(Cl)ccc43)C(C)C)o2)c1` [CE2230, (R,S)-3-Benzyloxycarbonylamino-2-oxo-5-(2-chlorophenyl)-1,4-(2′-chlorobenzodiazepine)-N-[1-(2-[5-(3-methylbenzyl)-1,3,4-oxadiazolyl]carbonyl)-2-(R,S)-methylpropyl]acetamide], the “Plasma Levels (μM) 3 hr” value in series [1] amounted to 0 µM. In series [2], the “ECM DATA % Inhibition 1 uM” value came to 37.7% and the “ECM DATA % Inhibition 5 uM” value is recorded as 37.8%. For the same molecule, the pKi in series [3] is 8.59.
As for `Cc1cccc(Cc2nnc(C(=O)[C@@H](NC(=O)CN3C(=O)NC4(Cc5ccccc5C4)C3=O)C(C)C)o2)c1` [CE2253, 4-Spiro-(2-indanyl)-2,5-imidazolidinedione-N-[1-(2-[5-(3-methylbenzyl)-1,3,4-oxadiazolyl]carbonyl)-2-(S)-methylpropyl]acetamide], in series [1], the concentration at 1 h is 0.282 µM, the concentration at 3 h is 0.246 µM and the concentration at 6 h was found to be 0.163 µM. In series [2], the inhibition at 1 µM turned out to be 31.9% and at 5 µM the inhibition was 45.9%. For the same molecule, in series [3], the pKi was 7.96.
In the case of `Cc1cccc(Cc2nnc(C(=O)[C@@H](NC(=O)Cn3c(-c4ccc(F)cc4)ncc(N)c3=O)C(C)C)o2)c1` [CE2101, 2-[5-Amino-6-oxo-2-(4-fluorophenyl)-1,6-dihydro-1-pyrimidinyl]-N-[1-(2-[5(3-methylbenzyl)-1,3,4-oxadiazolyl]carbonyl)-2-(S)-methylpropyl]acetamide], in series [1], the concentration at 1 h was 1.24 µM, the concentration at 3 h worked out at 1.37 µM and the concentration at 6 h was found to be 1.04 µM. In series [2], this molecule yielded an inhibition at 1 µM of 44.6% and an inhibition at 5 µM of 51.2%.
As to `Cc1cccc(Cc2nnc(C(=O)[C@@H](NC(=O)CN3C(=O)NC4(CCCCC4)C3=O)C(C)C)o2)c1` [CE2241, 4-Spirocyclohexane-2,5-imidazolidinedione-N-[1-(2-[5-(3-methylbenzyl)-1,3,4-oxadiazolyl]carbonyl)-2-(S)-methylpropyl]acetamide], in series [1], the “Plasma Levels (μM) 1 hr” value was 0.598 µM, the “Plasma Levels (μM) 3 hr” value is 0.289 µM and the “Plasma Levels (μM) 6 hr” value is 0.078 µM. In addition, in series [2], the “ECM DATA % Inhibition 1 uM” value was 18.6% and the “ECM DATA % Inhibition 5 uM” value is given as 31.7%. For the same molecule, the pKi in series [3] was 7.85.
Turning to `COc1cc2c(cc1OC)N(CC(=O)NC(C(=O)c1nnc(Cc3cccc(C)c3)o1)C(C)C)C(=O)C(N)N=C2C` [CE2235, (R,S)-3-Amino-2-oxo-5-methyl-1,4-(2′,3′-dimethoxybenzodiazepine)-N-[1-(2-[5-(3-methylbenzyl)-1,3,4-oxadiazolyl]carbonyl)-2-(R,S)-methylpropyl]acetamide], in series [2], the “ECM DATA % Inhibition 1 uM” value was 19.75% and the “ECM DATA % Inhibition 5 uM” value is listed as 13.25%. Further, the pKi in series [3] is 8.02.
`CC1=NC(N)C(=O)N(CC(=O)NC(C(=O)c2nnc(Cc3cccc(C)c3)o2)C(C)C)c2ccccc21` [CE2226, (R,S)-3-Amino-2-oxo-5-methyl-1,4-benzodiazepine-N-[1-(2-[5-(3-methylbenzyl)-1,3,4-oxadiazolyl]carbonyl)-2-(R,S)-methylpropyl]acetamide]: in series [2], testing at 1 µM gave an inhibition of 27.6% and the inhibition at 5 µM came out at 52.2%. Besides, the pKi in series [3] is 7.99.
In series [2], `Cc1cccc(Cc2nnc(C(=O)[C@@H](NC(=O)[C@@H]3CCCN3C(=O)[C@@H](NC(=O)c3cccnc3)C(C)C)C(C)C)o2)c1` [CE2161, (Pyridyl-3-carbonyl)-L-valyl-N-[1-(2-[5-(3-methylbenzyl)-1,3,4-oxadiazolyl]carbonyl)-2-(S)-methylpropyl]-L-prolinamide] yielded an inhibition at 1 µM of 25% and an inhibition at 5 µM of 55%. Besides, the pKi in series [3] was 10.09.
In the case of `Cc1cccc(Cc2nnc(C(=O)[C@@H](NC(=O)[C@@H]3CCCN3C(=O)[C@@H](NC(=O)OCc3ccccc3)C(C)C)C(C)C)o2)c1` [CE2072, (Benzyloxycarbonyl)-L-valyl-N-[1-(2-[5-(3-methylbenzyl)-1,3,4-oxadiazolyl]carbonyl)-2-(S)-methylpropyl]-L-prolinamide], in series [1], the concentration at 1 h came out at 0.277 µM, the concentration at 3 h came to 0.115 µM and the concentration at 6 h is 0.061 µM. In addition, in series [2], at 1 µM the inhibition was 64.8% and 5 µM produced 74.5% inhibition.
